Reference: patent US10729636B2, “Compositions comprising peptide [sequence]” (NURITAS LIMITED, priority 2016, dated 2020)

Columns and labels:
[1] = tested on: Human Dermal Fibroblasts (HDF); test: Collagen production assay (hydroxyproline ELISA); type: cell-based; details: 5, 1 or 0.1 μg/ml, 96 h, compared with untreated control, FIG. 3
Description: Study Description Hydroxyproline in tissue preparations is a direct measure of the amount of collagen present. […] Human Hydroxyproline ELISA kit assay is designed to measure hydroxyproline in tissue or peptide compositions.
Human Dermal Fibroblasts (HDF Sigma 10605a) were seeded in 24 well plates at 50,000 cells per well in DMEM containing 10% fetal calf serum (FCS), 1% Pen/strep, 1% L-glutamine and allowed to adhere for 24 h.
Following the initial 24 h incubation the cells were incubated with 5 μg/ml, 1 μg/ml or 0.1 μg/ml synthetic peptide for 96 h respectively.
After treatment, the cell supernatant was removed and centrifuged. 50 μl of each supernatant was assayed using the […] Human Hydroxyproline ELISA kit. All steps were carried out according to the manufacturer's instructions.

Human skeletal myoblasts = test: Glucose uptake (2-DG), skeletal myoblasts; type: cell-based; details: 3 h, compared with untreated control
Description: (§1) Glucose uptake in skeletal muscle cells was measured using 2-deoxyglucose (2-DG). 2-DG is taken up by glucose transporters and metabolized to 2-DG-6-phosphate (2-DG6P). The amount of accumulated non-metabolized 2-DG6P is proportional to glucose uptake by cells.
Human skeletal myoblasts (Sigma 150-05a) were seeded in a 96 well plate at 10,000 cells per well in Skeletal Muscle Differentiation medium and allowed to differentiated for 72 h prior to experimentation.
The differentiated cells were serum starved for 24 h prior to stimulation with insulin or synthetic peptides. After starvation, the serum free media was removed, cells rinsed with Phosphate Buffered Saline (PBS) and media replaced with 100 μl of Krebs-Ringer-Phosphate-HEPES (KRPH) and incubated for 1 h.
The cells were then stimulated with 100 nM insulin for 30 minutes or 5 μg/ml, 0.5 μg/ml or 0.05 μg/ml synthetic peptide for 3 h respectively.
(§2) Following stimulation, the cells were incubated with 10 μl/well of 2-DG solution for 40 min and glucose uptake was measured using the ‘PrismColor Glucose Uptake Assay Kit’ (Molecutools), all steps were carried out according to the manufacturer's instructions. The experiment was repeated using HACAT cells.

HACAT cells = test: Glucose uptake (2-DG), HACAT; type: cell-based; details: compared with untreated control, FIG. 5
Description: as §1, §2

GLUT-4 = GLUT-4 translocation (membrane fraction ELISA); type: cell-based, Human; details: HSKMC cells, 2 hrs, FIG. 8
Description: […] Upon completion of treatment, cell membrane proteins were collected. Briefly, cells were harvested from the wells with a cell scraper and centrifuged at 300×g for 5 min. The cell pellet was washed with 300 ul of cell wash solution and then re centrifuged at 300×g for 5 min. The supernatant was discarded and the cells resuspended in 1.5 ml of cell wash solution and transferred to a 2 ml centrifuge tube. The cells were then centrifuged at 300×g for 5 min and the supernatant discarded. 150 ul of permeabilization buffer was added to the cell pellet and vortexed briefly to obtain a homogenous cell suspension. The suspension was then incubated at 4° C. for 10 min with constant mixing. […] The supernatant containing solubilized membrane and membrane associated proteins fractions was transferred to a new tube and stored at −80° C. until ready for assessment.
GLUT-4 was assessed in the cell membrane fractions using a sandwich ELISA from LSBio. […] 50 ul of stop solution was added to each well and the optical density of the sample was determined using a microplate reader set to 450 nm. GLUT-4 concentration in the samples was calculated off the standard curve after generating a four-parameter logistic (4-PL) curve fit. Sample concentration read of the curve was then adjusted by multiplying the results by the dilution factor.

[2] = tested on: mTOR phosphorylated at Ser2448; test: Muscle protein synthesis (Phospho-mTOR assay); type: cell-based; details: HSkMC cells, 2 hours, FIG. 9
Description: Phospho-mTOR sandwich ELISA detects endogenous levels of phosphorylated mTOR at Ser2448.
Day 1: Seed HSkMC cells in 500 uL/well of HSkMC Growth Medium and let them adhere to the wells for 16-24 h.
Day 2: Remove growth medium and add 500 uL/well of HSkMC Differentiation Medium to let them differentiate for 5-7 days.
Day 7: Treat cells for 2 hours. Collect cell lysates in lysis buffer.
Day 8: Perform BCA (protein determination) and run the assay. In a first incubation step, a mTOR antibody coated onto the ELISA microwells is used to capture mTOR (phospho and non-phospho) from the cell lysates. Then, following extensive washing, a specific phospho-mTOR detection antibody is added to detect only the phospho-mTOR protein captured before. Finally, a HRP-linked antibody is used to recognise the detection antibody and through the addition of TMB (HRP substrate) develop color proportionally to the quantity of mTOR phosphorylated at Ser2448.

KK.Cg-Ay/J (KKAY mouse) = test: Blood glucose management in a mouse model of obesity and diabetes; type: in vivo; details: KKAY mice; 100 μM/kg subcutaneous injection; after 7 days of treatment
Description: (§3) • Species—KK.Cg-Ay/J (KKAY mouse) • Source—Jackson Laboratories • Age—12 weeks of age • Gender—Male • Randomization—Based on baseline fasting glucose Housing and Feeding: • Acclimation—Not less than five days • Housing • Mice will be housed on a 12 hr light/dark cycle • No more than 4 mice per cage depending on size • Ventilated cage rack system • Diet—Standard rodent chow and water ad libitum Design: • Route of administration:—Subcutaneous injection • Dose Volume(s)—10 mL/kg • Dose Levels—Test articles: 100 μM/kg, Metformin: 250 mg/kg • Number per group—10 • Total number of animals—30

Body weight of KKAY mice = type: in vivo, mouse; details: 100 μM/kg subcutaneous injection, 13 days of treatment
Description: as §3

Sequence: WKDEAGKPLVK [SEQ ID NO. 1]
- collagen production [1]: increase
- glucose uptake (Human skeletal myoblasts; 0.5 μg/ml, FIG. 6): increase
- glucose uptake (Human skeletal myoblasts; 5 μg/ml, FIG. 7): increase
- glucose uptake (HACAT cells): increase
- GLUT4 translocation (GLUT-4; 0.05 ug/ml): increase
- GLUT4 translocation (GLUT-4; 5 ug/ml): increase
- mTOR ([2]; 0.5 μg/ml): increase
- mTOR ([2]; 5 μg/ml): increase
- blood glucose (KK.Cg-Ay/J (KKAY mouse)): significantly reduced
- body weight relative to the untreated group (Body weight of KKAY mice): reduced body weight
- increase in body weight (Body weight of KKAY mice): did not cause an increase
